Laboratory results published in PMC6017325, “Cell Penetrating Capacity and Internalization Mechanisms Used by the Synthetic Peptide CIGB-552 and Its Relationship with Tumor Cell Line Sensitivity” (Molecules : A Journal of Synthetic Chemistry and Natural …, 2018).

Assays:
COMMD1 protein = target: T1, COMMD1 protein (Homo sapiens, UniProt Q8N668); assay: Protein complementation assay (PCA), Venus; format: cell-based; conditions: MCF-7 and H460 cells co-transfected with Venus 1 / Venus 2 plasmids containing COMMD1 or L2; confocal microscopy
T1 construct: Venus fragment (Venus 1 or Venus 2); expressed in transfected cells; host or cells: MCF-7 and H460 cells, co-transfected with pCDNA3.1 Venus 1 / Venus 2 plasmids using Lipofectamine 2000
Experimental: L2 peptide, which was chemically modified in its primary structure to generate the CIGB-552, was used for the protein complementation assay. Cells were seeded in 12-well plates containing round coverslips (1 × 10^5 cells/well) and cultured in either DMEM or RPMI supplemented with Glutamax, 10% (v/v) FBS, at 37 °C for 24 h. Cells were co-transfected with the plasmids pCDNA3.1 Venus 1 and pCDNA3.1 Venus 2 each one containing either COMMD1 protein or L2 peptide. Transfection was performed with Lipofectamine 2000 (Thermo Fisher, Waltham, MA, USA) using a ratio of 1:2 DNA:lipofectamine ([…]). […]
All images were taken using laser confocal microscope Leica TCS SP5 equipped with a 63X NA 1.42 oil immersion objective (Leica Microsystems, Wetzlar, Germany). […] Quantification of the number of fully loaded cells was performed using 10 single optical sections for each cell line by using the Manual Counting plugin provided in Icy 1.9.5.1v imaging software. In order to assess fluorescence intensity both in cytoplasm and nuclei, images were taken in identical conditions (laser power, photomultiplier voltage, line and frame average and zoom) for all cell lines and 10 single optical sections were used for the analysis. […]

MCF-7 [1] = conditions: MCF-7 cell line; read-out: cytotoxicity, IC50 value; cited from earlier work
Excerpt: Table 1 CIGB-552 cytotoxicity in H460, HT-29 and MCF-7 cell lines (expressed by the IC50 value in μM); D-amino acids are indicated in small and italic characters. | column: MCF-7

H460 [2] = conditions: H460 cell line; read-out: cytotoxicity, IC50 value; cited from earlier work
Excerpt: Table 1 CIGB-552 cytotoxicity in H460, HT-29 and MCF-7 cell lines (expressed by the IC50 value in μM); D-amino acids are indicated in small and italic characters. | column: H460

HT-29 [3] = assay: Internalization assay, flow cytometry, HT-29; format: cell-based, human; conditions: FITC-conjugated CIGB-552 5 and 50 μM, 1 h
Experimental: (§1) Cells were seeded in 12-well plates (1 × 10^5 cells/well) and cultured in either D-MEM or RPMI supplemented with Glutamax, 10% (v/v) FBS, at 37 °C for 24 h. For those samples where internalization was analyzed by microscopy, round coverslips were placed into the wells prior to cell seeding. Subsequently, FITC-conjugated CIGB-552, was added to the cells to a final concentration of 5 μM or 50 μM and was incubated for 1 h at either 4 °C or 37 °C. For flow cytometry readout, culture medium was removed, cells were washed using phosphate-buffered saline (PBS) and surface-bound FITC-peptide was quenched with 0.4% (w/v) Trypan Blue solution. Cells were trypsinized and samples were acquired using Cyan ADP Flow Cytometer equipped with a 488 nm laser and a FL1 emission filter (530/40 nm). For data acquisition and analysis Summit v4.3 (Beckman Coulter, Fullerton, CA, USA) and FlowJo v.7.6.5 software (BD, Ashland, OR, USA) were used. For microscopy assays, cells were fixed in 4% (w/v) paraformaldehyde (PFA) for 15min, permeabilized using 0.2% (v/v) Tween 20 solution in PBS, and nuclei were stained using TOPRO-3 (1 μM, Life Technologies) and CellMask^TM membrane marker (1:2000, Life Technologies).
(§2) Data was expressed as the mean ± Standard Deviation of triplicates of one representative experiment, three independent experiments were executed. […]

H460 [4] = assay: Internalization assay, flow cytometry, H460; format: cell-based, human; conditions: FITC-conjugated CIGB-552 5 and 50 μM, 1 h
Experimental: as §1
Data was expressed as the mean ± Standard Deviation of triplicates of one representative experiment, three independent experiments were executed. Statistic calculations were performed using Statistica software (STATSOFT, Hamburg, Germany). Differences were considered statistically significant when p < 0.05 using Mann-Whitney U Test.

MCF-7 [5] = assay: Internalization assay, flow cytometry, MCF-7; format: cell-based, human; conditions: FITC-conjugated CIGB-552 5 and 50 μM, 1 h
Experimental: as §1, §2

HT-29 [6] = conditions: HT-29 cell line; read-out: cytotoxicity, IC50 value; cited from earlier work
Excerpt: Table 1 CIGB-552 cytotoxicity in H460, HT-29 and MCF-7 cell lines (expressed by the IC50 value in μM); D-amino acids are indicated in small and italic characters. | column: HT-29

[7] = MFI at 4 °C referred to MFI at 37 °C

T1 sequence (Q8N668 whole entry, the tested form may be a part): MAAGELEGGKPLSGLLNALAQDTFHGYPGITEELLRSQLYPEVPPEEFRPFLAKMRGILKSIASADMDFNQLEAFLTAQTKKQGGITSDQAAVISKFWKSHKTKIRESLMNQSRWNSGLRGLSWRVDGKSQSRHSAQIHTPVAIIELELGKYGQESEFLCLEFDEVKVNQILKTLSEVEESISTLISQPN

Substance	in situ interaction with COMMD1 (fluorescence emission of Venus protein) (COMMD1 protein)	IC50 (MCF-7 [1]) [µM]	IC50 (H460 [2]) [µM]	temperature effect on internalization (HT-29 [3]; 4 °C versus 37 °C)	contribution of the transduction mechanism to internalization (HT-29 [3]; [7])	temperature effect on internalization (H460 [4]; 4 °C versus 37 °C)	internalization levels (median fluorescent intensity, MFI) (H460 [4]; 37 °C, surface-bound peptide quenched with 0.4% Trypan Blue)	contribution of the transduction mechanism to internalization (H460 [4]; [7])	temperature effect on internalization (MCF-7 [5]; 4 °C versus 37 °C)	contribution of the transduction mechanism to internalization (MCF-7 [5]; [7])	IC50 (HT-29 [6]) [µM]
HARIKPTFRRLKWKYKGKFW [L2]	likely to interact	–	–	–	–	–	–	–	–	–	–
Ac-HARIKpTFRRlKWKYKGKFW [CIGB-552, twenty-amino-acid novel synthetic peptide, AMP-derived, cell penetrating, pro-apoptotic through COMMD1]	–	338 ± 39	23 ± 8	higher reduction in internalization levels	less than 50%	higher reduction in internalization levels	highest internalization levels	less than 50%	reduction in the internalization	more than 50%	166 ± 66
